From the supplement of paper PMC10307832

Experiments:
Assay in all cases: relative viability (nuclei count vs DMSO), 5 days (fraction); higher = more cells survive
NVP-TAE684 + OSI-027 = compound: COc1cc(N2CCC(N3CCN(C)CC3)CC2)ccc1Nc1ncc(Cl)c(Nc2ccccc2S(=O)(=O)C(C)C)n1 [NVP-TAE684] + COc1cccc2cc(-c3nc([C@H]4CC[C@H](C(=O)O)CC4)n4ncnc(N)c34)[nH]c12 [OSI-027] (partner 0.5 µM)
Summary of the method: (§1)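 Each reported value is a median over duplicate plates. It expresses relative viability: treated-well nuclei count divided by vehicle-well nuclei count. Lung cancer cell lines in 1536-well plates were dosed by pin tool a day after seeding, alone with one drug or with a fixed anchor-drug dose plus five library-drug doses (not always all listed) in √10 steps, and nuclei were counted after 5 days.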

[1] = compound: C1=CC=C2C(=C1)N=C(S2)C(C#N)C3=NC(=NC=C3)NCCC4=CN=CC=C4 + Cc1cc(Nc2cc(N3CCN(C)CC3)nc(Sc3ccc(NC(=O)C4CC4)cc3)n2)n[nH]1 [Tozasertib] (partner 0.1 µM)
Summary of the method: as §1

NVP-TAE684 + Linsitinib = compound: COc1cc(N2CCC(N3CCN(C)CC3)CC2)ccc1Nc1ncc(Cl)c(Nc2ccccc2S(=O)(=O)C(C)C)n1 [NVP-TAE684] + C[C@]1(O)C[C@@H](c2nc(-c3ccc4ccc(-c5ccccc5)nc4c3)c3c(N)nccn32)C1 [Linsitinib] (partner 1 µM)
Summary of the method: as §1

Vandetanib + Decitabine = compound: COc1cc2/c(=N/c3ccc(Br)cc3F)nc[nH]c2cc1OCC1CCN(C)CC1 [Vandetanib] + Nc1ncn([C@H]2C[C@H](O)[C@@H](CO)O2)c(=O)n1 [Decitabine] (partner 2 µM)
Summary of the method: as §1

Row | Cell Line | relative viability (NVP-TAE684 + OSI-027; first compound 0.2 µM) | relative viability (NVP-TAE684 + OSI-027; first compound 0.6325 µM) | relative viability (NVP-TAE684 + OSI-027; first compound 2 µM) | relative viability ([1]; first compound 0.005 µM) | relative viability ([1]; first compound 0.01581 µM) | relative viability ([1]; first compound 0.05 µM) | relative viability ([1]; first compound 0.1581 µM) | relative viability ([1]; first compound 0.5 µM) | relative viability (NVP-TAE684 + Linsitinib; first compound 0.2 µM) | relative viability (NVP-TAE684 + Linsitinib; first compound 0.6325 µM) | relative viability (NVP-TAE684 + Linsitinib; first compound 2 µM) | relative viability (Vandetanib + Decitabine; first compound 0.02 µM) | relative viability (Vandetanib + Decitabine; first compound 0.06325 µM) | relative viability (Vandetanib + Decitabine; first compound 0.2 µM) | relative viability (Vandetanib + Decitabine; first compound 0.6325 µM) | relative viability (Vandetanib + Decitabine; first compound 2 µM)
1 | PC-14 | 0.699 | 0.644 | 0.185 | 0.573 | 0.667 | 0.554 | 0.631 | 0.45 | 0.934 | 1.1 | 0.851 | 0.246 | 0.197 | 0.175 | 0.171 | 0.159
2 | NCI-H322M | 0.426 | 0.469 | 0.336 | 0.4 | 0.382 | 0.487 | 0.531 | 0.48 | 0.805 | 0.862 | 0.872 | 0.688 | 0.658 | 0.763 | 0.718 | 0.577
3 | NCI-H1651 | 0.692 | 0.79 | 0.295 | 0.618 | 0.793 | 0.518 | 0.661 | 0.457 | 1.02 | 0.98 | 0.935 | 0.609 | 0.583 | 0.572 | 0.628 | 0.45
4 | LCLC-97TM1 | 0.52 | 0.473 | 0.14 | 0.294 | 0.214 | 0.273 | 0.256 | 0.281 | 0.136 | 0.189 | 0.136 | 0.223 | 0.22 | 0.209 | 0.264 | 0.234
5 | NCI-H727 | 0.68 | 0.411 | 0.372 | 0.629 | 0.674 | 0.51 | 0.512 | 0.686 | 0.331 | 0.284 | 0.216 | 0.827 | 0.798 | 0.938 | 0.885 | 0.492
6 | NCI-H1666 | 0.901 | 0.767 | 0.641 | 0.642 | 0.615 | 0.541 | 0.651 | 0.617 | 0.828 | 0.605 | 0.591 | 0.74 | 0.675 | 0.731 | 0.757 | 0.553
7 | HCC-366 | 1.15 | 0.772 | 0.401 | 0.102 | 0.087 | 0.075 | 0.0798 | 0.0706 | 0.605 | 0.621 | 0.455 | 0.291 | 0.355 | 0.354 | 0.332 | 0.347
8 | NCI-H1437 | 0.79 | – | 0.203 | 0.355 | 0.389 | 0.414 | 0.401 | 0.325 | 1.01 | 1.02 | 0.545 | 0.534 | 0.559 | 0.556 | 0.551 | 0.545
9 | EPLC-272H | 0.227 | 0.251 | 0.203 | 0.168 | 0.225 | 0.253 | 0.236 | 0.388 | 1.08 | – | 1.3 | 0.381 | 0.35 | 0.343 | 0.364 | 0.314
10 | HCC-15 | 0.631 | 0.525 | 0.381 | 0.343 | 0.411 | 0.316 | 0.315 | 0.273 | 0.84 | 0.866 | 0.601 | 0.662 | 0.516 | 0.562 | 0.616 | 0.616
11 | NCI-H2347 | 0.403 | 0.368 | 0.301 | 0.758 | 0.533 | 0.574 | 0.599 | 0.412 | 1.06 | 0.976 | 0.875 | 0.595 | 0.525 | 0.685 | 0.619 | 0.568
12 | COR-L 105 | 0.636 | 0.441 | 0.268 | 0.324 | 0.338 | 0.315 | 0.339 | 0.351 | 0.915 | – | 0.625 | 0.683 | 0.574 | 0.622 | 0.561 | 0.505
13 | NCI-H838 | 0.389 | 0.324 | 0.175 | 0.28 | 0.289 | 0.243 | 0.282 | 0.223 | 1.22 | 0.955 | 0.372 | 0.489 | 0.399 | 0.503 | 0.457 | 0.451
14 | NCI-H2009 | 0.603 | 0.449 | 0.302 | 0.683 | 0.747 | 0.65 | 0.763 | 0.629 | 1.08 | 1.21 | 0.986 | 0.359 | 0.394 | 0.369 | 0.371 | 0.325
15 | SK-MES-1 | 0.447 | 0.529 | 0.352 | 0.909 | 0.978 | 0.838 | 0.886 | 0.511 | 0.985 | 1.05 | 0.837 | 0.419 | 0.38 | 0.411 | 0.276 | 0.252
16 | H3255 | 0.531 | 0.602 | 0.4 | 0.685 | 0.609 | 0.702 | 0.089 | 0.9 | 0.903 | 0.927 | 0.69 | 0.766 | 0.559 | 0.565 | 0.387 | 0.207
17 | HCC-78 | 0.339 | 0.254 | 0.348 | 0.423 | 0.503 | 0.472 | 0.552 | 0.261 | 0.403 | 0.359 | 0.294 | 0.715 | 0.632 | 0.683 | 0.689 | 0.643

Row | Cell Line | relative viability (NVP-TAE684 + OSI-027; first compound 0.2 µM) | relative viability (NVP-TAE684 + OSI-027; first compound 0.6325 µM) | relative viability (NVP-TAE684 + OSI-027; first compound 2 µM) | relative viability ([1]; first compound 0.005 µM) | relative viability ([1]; first compound 0.01581 µM) | relative viability ([1]; first compound 0.05 µM) | relative viability ([1]; first compound 0.1581 µM) | relative viability ([1]; first compound 0.5 µM) | relative viability (NVP-TAE684 + Linsitinib; first compound 0.2 µM) | relative viability (NVP-TAE684 + Linsitinib; first compound 0.6325 µM) | relative viability (NVP-TAE684 + Linsitinib; first compound 2 µM) | relative viability (Vandetanib + Decitabine; first compound 0.02 µM) | relative viability (Vandetanib + Decitabine; first compound 0.06325 µM) | relative viability (Vandetanib + Decitabine; first compound 0.2 µM) | relative viability (Vandetanib + Decitabine; first compound 0.6325 µM) | relative viability (Vandetanib + Decitabine; first compound 2 µM)
18 | EMC-BAC-2 | 0.364 | 0.344 | 0.324 | 0.268 | 0.32 | 0.262 | 0.278 | 0.234 | 0.771 | – | 0.51 | 1.03 | 0.938 | 0.902 | 0.966 | 0.905
19 | HCC-827 | 0.681 | 0.743 | 0.848 | 0.366 | 0.425 | 0.424 | 0.438 | 0.394 | 0.978 | 1.01 | 0.973 | 0.361 | 0.302 | 0.335 | 0.191 | 0.152
20 | LXF-289 | 0.798 | 0.808 | 0.317 | 0.173 | 0.197 | 0.184 | 0.232 | 0.237 | 0.937 | 1.01 | 0.822 | 0.376 | 0.382 | 0.362 | 0.348 | 0.393
21 | HOP-62 | 0.902 | 0.878 | – | 0.291 | 0.42 | 0.398 | 0.366 | 0.372 | 0.97 | 0.963 | 0.755 | 0.244 | 0.267 | 0.208 | 0.202 | 0.249
22 | LCLC-103H | 0.445 | 0.467 | 0.372 | 0.49 | 0.492 | 0.525 | 0.558 | 0.478 | 1.06 | 1.23 | 1.15 | 0.733 | 0.729 | 0.659 | 0.75 | 0.762
23 | LOU-NH91 | 0.746 | 0.674 | 0.571 | 0.652 | 0.606 | 0.599 | 0.689 | 0.59 | 0.936 | 0.832 | 0.665 | 0.816 | 0.734 | 0.681 | 0.679 | 0.66
24 | NCI-H1915 | 0.678 | 0.668 | 0.611 | 0.343 | 0.455 | 0.442 | 0.534 | 0.305 | 1.16 | 1.18 | 1.01 | 0.245 | 0.255 | 0.274 | 0.263 | 0.248
25 | NCI-H1395 | 0.712 | 0.482 | 0.567 | 0.684 | 0.69 | 0.755 | 0.713 | 0.756 | 1.3 | 0.766 | 0.862 | 0.737 | 0.704 | 0.655 | 0.788 | 0.74
26 | COR-L23 | 0.818 | 0.804 | 0.316 | 0.179 | 0.169 | 0.175 | 0.167 | 0.149 | 0.871 | 0.937 | 0.419 | 0.447 | 0.442 | 0.491 | 0.401 | 0.422
27 | NCI-H1734 | 0.679 | 0.518 | 0.387 | – | 0.247 | 0.248 | 0.264 | 0.267 | 0.849 | 0.92 | 0.818 | 0.495 | 0.494 | 0.537 | 0.526 | 0.513
28 | NCI-H2405 | 0.564 | 0.613 | 0.261 | 0.714 | 0.72 | 0.672 | 0.701 | 0.616 | – | 0.849 | 0.573 | 0.749 | 0.687 | 0.747 | 0.8 | 0.718
29 | NCI-H2087 | 0.538 | 0.438 | 0.354 | 0.201 | 0.229 | 0.234 | 0.199 | 0.211 | 1.04 | 1.04 | 0.982 | 0.364 | 0.379 | 0.281 | 0.286 | 0.233
30 | NCI-H1793 | 0.267 | 0.274 | 0.204 | 0.262 | 0.334 | 0.264 | 0.32 | 0.317 | 0.734 | 0.857 | 0.9 | 0.424 | 0.407 | 0.517 | 0.401 | 0.439
31 | NCI-H2085 | 0.777 | 0.739 | 0.57 | 0.826 | 0.821 | 0.744 | 0.813 | 0.566 | 0.928 | 0.82 | 0.7 | 0.536 | 0.522 | 0.525 | 0.471 | 0.574
32 | NCI-H358 | 0.718 | 0.616 | 0.15 | 0.084 | 0.0964 | 0.0992 | 0.109 | 0.0865 | 0.73 | 0.488 | 0.274 | 0.181 | 0.203 | 0.208 | 0.232 | 0.19
33 | NCI-H2023 | 0.412 | 0.258 | 0.101 | 0.288 | 0.386 | 0.251 | 0.275 | 0.136 | 0.517 | 0.669 | 0.265 | 0.235 | 0.183 | 0.225 | 0.253 | 0.204
